Measured values taken from the NIST ThermoML archive (doi:10.1021/je034102r).

Assay: molar heat capacity at constant pressure
Details: 101.33 kPa, Liquid, heat bridge-scanning calorimeter

CCCCn1cc[n+](C)c1.F[P-](F)(F)(F)(F)F [1-butyl-3-methylimidazolium hexafluorophosphate]
Details	molar heat capacity at constant pressure [J/K/mol]
300.05 K	409.22
300.17 K	409.79
300.3 K	410.08
300.43 K	410.08
300.55 K	410.36
300.81 K	410.36
300.94 K	410.36
301.07 K	410.64
301.19 K	410.93
301.32 K	410.93
301.45 K	411.21
301.57 K	410.93
301.7 K	411.5
301.83 K	411.5
301.95 K	411.5
302.08 K	411.78
302.35 K	412.06
302.48 K	412.06
302.61 K	412.06
302.73 K	412.35
302.86 K	412.35
302.99 K	412.35
303.12 K	412.35
303.24 K	412.92
303.37 K	412.92
303.63 K	413.2
303.75 K	413.2
303.89 K	413.2
304.02 K	413.2
304.15 K	413.2
304.27 K	413.2
304.4 K	413.49
304.53 K	413.49
304.66 K	413.77
304.78 K	414.05
304.91 K	414.05
305.19 K	414.34
305.31 K	414.34
305.44 K	414.34
305.57 K	414.62
305.7 K	414.91
305.82 K	414.62
305.95 K	414.91
306.08 K	415.19
306.2 K	415.19
306.46 K	415.19
306.59 K	415.19
306.72 K	415.47
306.84 K	415.47
306.97 K	415.47
307.1 K	415.76
307.22 K	415.76
307.35 K	416.33
307.48 K	415.76
307.61 K	416.04
307.73 K	416.04
308.01 K	416.04
308.13 K	416.61
308.26 K	416.33
308.39 K	416.61
308.51 K	416.61
308.64 K	416.9
308.77 K	416.61
308.89 K	416.61
309.02 K	416.9
309.28 K	416.9
309.41 K	417.18
309.53 K	417.46
309.66 K	417.46
309.8 K	417.46
309.93 K	417.46
310.05 K	417.46
310.18 K	417.46
310.31 K	417.75
310.44 K	417.75
310.56 K	418.03
310.84 K	418.32
310.97 K	418.32
311.09 K	418.32
311.22 K	418.32
311.35 K	418.6
311.47 K	418.32
311.6 K	418.6
311.73 K	418.6
311.86 K	418.32
312.11 K	418.6
312.24 K	418.6
312.37 K	418.88
312.49 K	418.88
312.62 K	419.17
312.75 K	419.17
312.87 K	419.45
313 K	419.45
313.13 K	419.45
313.25 K	419.45
313.38 K	419.74
313.65 K	420.02
313.78 K	420.02
313.91 K	420.02
314.04 K	420.02
314.16 K	420.02
314.29 K	420.02
314.42 K	420.31
314.54 K	420.59
314.67 K	420.59
314.93 K	420.59
315.05 K	420.59
315.18 K	420.87
315.31 K	420.87
315.43 K	420.87
315.56 K	420.87
315.7 K	420.87
315.82 K	420.87
315.95 K	421.16
316.08 K	420.87
316.2 K	421.16
316.48 K	421.16
316.6 K	421.44
316.73 K	421.73
316.86 K	421.73
316.98 K	421.73
317.11 K	421.73
317.24 K	421.73
317.36 K	421.73
317.49 K	421.44
317.75 K	422.01
317.88 K	422.01
318 K	422.29
318.13 K	422.29
318.26 K	422.58
318.38 K	422.58
318.51 K	422.58
318.64 K	422.58
318.76 K	422.86
318.89 K	422.58
319.02 K	423.15
319.29 K	422.86
319.42 K	422.86
319.54 K	422.86
319.67 K	422.86
319.8 K	422.86
319.92 K	422.86
320.05 K	423.15
320.18 K	423.15
320.3 K	423.15
320.56 K	423.43
320.69 K	423.43
320.81 K	423.72
320.94 K	423.72
321.06 K	423.72
321.19 K	424
321.32 K	424
321.44 K	424
321.57 K	424
321.71 K	424
321.83 K	424.28
322.11 K	424.28
322.23 K	424.28
322.36 K	424
322.49 K	424
322.61 K	424
322.74 K	424.28
322.87 K	424.28
322.99 K	424.57
323.12 K	424.57
323.38 K	424.57
323.5 K	424.57
323.63 K	424.85
323.76 K	424.85
323.88 K	424.85
324.01 K	425.14
324.14 K	425.14
324.26 K	425.14
324.39 K	425.42
324.51 K	425.42
324.64 K	425.42
324.91 K	425.71
325.04 K	425.71
325.17 K	425.71
325.29 K	425.71
325.42 K	425.71
325.54 K	425.99
325.67 K	425.71
325.8 K	425.99
325.92 K	426.27
326.18 K	426.27
326.31 K	426.27
326.43 K	426.27
326.56 K	426.56
326.68 K	426.56
326.81 K	426.27
